Source: ChEMBL document CHEMBL4316624, “Analyzing the role of cannabinoids as modulators of Wnt/β-catenin signaling pathway for their use in the management of neuropathic pain” (Bioorg Med Chem Lett, 2019)
pIC50: −log10 of the molar value. Active and inactive are the calls of the source. The calls are words filed in the database; no cut-off is given here.

What was measured:
[1] = system: MCF7; test: Cytotoxicity against human MCF7 cells assessed as reduction in cell viability incubated for 24 to 72 hrs by MTT assay; format: cell-based
[2] = system: SH-SY5Y; test: Cytotoxicity against human SH-SY5Y cells assessed as reduction in cell viability incubated for 72 hrs by MTT assay; format: cell-based
[3] = system: PC-3; test: Cytotoxicity against human PC3 cells assessed as reduction in cell viability incubated for 24 to 72 hrs by MTT assay; format: cell-based
[4] = system: HepG2; test: Inhibition of Wnt/beta-catenin signaling pathway in human HepG2 cells assessed as reduction in TCF-dependent beta-catenin mediated transcription incubated for 24 hrs by Topflash reporter assay; format: cell-based
[5] = system: A549; test: Cytotoxicity against human A549 cells assessed as reduction in cell viability incubated for 72 hrs by MTT assay; format: cell-based; conditions: A549, 72 h
[6] = system: A549; test: Cytotoxicity against human A549 cells assessed as reduction in cell viability incubated for 24 to 72 hrs by MTT assay; format: cell-based
[7] = system: OVCAR; test: Cytotoxicity against human OVCAR cells assessed as reduction in cell viability incubated for 72 hrs by MTT assay; format: cell-based
[8] = system: SH-SY5Y; test: Cytotoxicity against human SH-SY5Y cells assessed as reduction in cell viability incubated for 24 to 72 hrs by MTT assay; format: cell-based
[9] = system: HCT-116; test: Cytotoxicity against human HCT116 cells assessed as reduction in cell viability incubated for 24 to 72 hrs by MTT assay; format: cell-based
[10] = system: OVCAR; test: Cytotoxicity against human OVCAR cells assessed as reduction in cell viability incubated for 24 to 72 hrs by MTT assay; format: ADME, cell-based
[11] = system: MCF7; test: Cytotoxicity against human MCF7 cells assessed as reduction in cell viability incubated for 72 hrs by MTT assay; format: cell-based; conditions: MCF7, 72 h
[12] = system: PC-3; test: Cytotoxicity against human PC3 cells assessed as reduction in cell viability incubated for 72 hrs by MTT assay; format: cell-based; conditions: PC-3, 72 h
[13] = system: HepG2; test: Cytotoxicity against human HepG2 cells assessed as reduction in cell viability incubated for 72 hrs by MTT assay; format: cell-based; conditions: HepG2, 72 h
[14] = system: HepG2; test: Cytotoxicity against human HepG2 cells assessed as reduction in cell viability incubated for 24 to 72 hrs by MTT assay; format: cell-based
[15] = system: HCT-116; test: Cytotoxicity against human HCT116 cells assessed as reduction in cell viability incubated for 72 hrs by MTT assay; format: cell-based; conditions: HCT-116, 72 h
[16] = system: HepG2; test: Inhibition of Wnt/beta-catenin signaling pathway in human HepG2 cells assessed as reduction in TCF-dependent beta-catenin mediated transcription at 20 to 40 uM incubated for 24 hrs by Topflash reporter assay; format: cell-based
[17] = system: HepG2; test: Inhibition of Wnt/beta-catenin signaling pathway in human HepG2 cells assessed as reduction in TCF-dependent beta-catenin mediated transcription at 5 to 40 uM incubated for 24 hrs by Topflash reporter assay; format: cell-based

SMILES	Activity [1]	pIC50 [2]	Activity [3]	inhibition [4]	pIC50 [5]	Activity [6]	pIC50 [7]	Activity [8]	Activity [9]	Activity [10]	pIC50 [11]	pIC50 [12]	pIC50 [13]	Activity [14]	pIC50 [15]	inhibition [16]	inhibition [17]
C=C(C)[C@@H]1CC[C@H]2O[C@H]2[C@H]1c1c(O)cc(CCCCC)cc1O	Dose-dependent effect	4.29	Dose-dependent effect	Dose-dependent effect	4.34	Dose-dependent effect	4.25	Dose-dependent effect	Dose-dependent effect	Dose-dependent effect	4.33	4.75	4.28	Dose-dependent effect	4.82	–	–
CCCCCc1cc(O)c2c(c1)OC(C)(CCC=C(C)C)C=C2 (configuration not stated) [CANNABICHROMENE]	Dose-dependent effect	4.11	Dose-dependent effect	–	4.22	Dose-dependent effect	4.19	Dose-dependent effect	Dose-dependent effect	Dose-dependent effect	4.40	4.40	4.22	Dose-dependent effect	4.22	inactive	–
C=C(C)[C@@H]1CCC(C)=C[C@H]1c1c(O)cc(CCCCC)cc1O [CANNABIDIOL]	Dose-dependent effect	4.32	Dose-dependent effect	Dose-dependent effect	4.40	Dose-dependent effect	4.30	Dose-dependent effect	Dose-dependent effect	Dose-dependent effect	4.26	4.92	4.37	Dose-dependent effect	4.74	–	–
C=C(C)[C@@H]1CCC(C)=C[C@H]1c1c(O)cc(CCC)cc1O [CANNABIDIVARIN]	Dose-dependent effect	4.26	Dose-dependent effect	Dose-dependent effect	4.41	Dose-dependent effect	4.24	Dose-dependent effect	Dose-dependent effect	Dose-dependent effect	4.28	4.36	4.19	Dose-dependent effect	4.89	–	–
CCCCCc1cc(O)c2c(c1)OC(C)(C)c1ccc(C)cc1-2 [CANNABINOL]	Dose-dependent effect	4.01	Dose-dependent effect	–	4.04	Dose-dependent effect	4.11	Dose-dependent effect	Dose-dependent effect	Dose-dependent effect	4.09	4.11	4.13	Dose-dependent effect	4.10	–	inactive
CCCCCc1cc(O)c2c(c1)OC(C)(C)[C@@H]1CCC(C)=C[C@@H]21 [DRONABINOL]	Dose-dependent effect	4.30	Dose-dependent effect	–	4.35	Dose-dependent effect	4.20	Dose-dependent effect	Dose-dependent effect	Dose-dependent effect	4.24	4.19	4.23	Dose-dependent effect	4.38	inactive	–
CC[C@@H](C(=O)[C@@H](C)[C@@H](O)[C@H](C)[C@@H]1O[C@@H]([C@@H](CC)C(=O)O)CC[C@@H]1C)[C@H]1O[C@]2(C=C[C@@H](O)[C@]3(CC[C@@](C)([C@H]4CC[C@](O)(CC)[C@H](C)O4)O3)O2)[C@H](C)C[C@@H]1C [SALINOMYCIN]	–	–	–	Dose-dependent effect	–	–	–	–	–	–	–	–	4.61	–	–	–	–
CCCc1cc(O)c2c(c1)OC(C)(C)[C@@H]1CCC(C)=C[C@@H]21 [TETRAHYDROCANNABIVARIN]	Dose-dependent effect	4.02	Dose-dependent effect	–	4.05	Dose-dependent effect	4.12	Dose-dependent effect	Dose-dependent effect	Dose-dependent effect	4.10	4.10	4.12	Dose-dependent effect	4.08	inactive	–
